Experimental data as given in PubChem BioAssay (NCI).
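Test compounds were applied to cells in 96-well plates for 48 hours at 5 doses. GI50: concentration for 50% inhibition of growth. TGI: concentration producing complete growth inhibition.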

Key:
Test in all cases: NCI-60 cell line screen, 48 h
[1] = system: 786-0 renal
[2] = system: A498 renal
[3] = system: A549 NSCLC
[4] = system: ACHN renal
[5] = system: BT-549 breast
[6] = system: CAKI-1 renal
[7] = system: CCRF-CEM leukemia
[8] = system: COLO 205 colon
[9] = system: DU-145 prostate
[10] = system: EKVX NSCLC
[11] = system: HCC-2998 colon
[12] = system: HCT-116 colon
[13] = system: HCT-15 colon
[14] = system: HL-60(TB) leukemia
[15] = system: HOP-62 NSCLC
[16] = system: HOP-92 NSCLC
[17] = system: HS 578T breast
[18] = system: HT29 colon
[19] = system: IGROV1 ovarian
[20] = system: K-562 leukemia
[21] = system: KM12 colon
[22] = system: LOX IMVI melanoma
[23] = system: M14 melanoma
[24] = system: MALME-3M melanoma
[25] = system: MCF7 breast
[26] = system: MDA-MB-231 breast
[27] = system: MDA-MB-435
[28] = system: MOLT-4 leukemia
[29] = system: NCI-H226 lung
[30] = system: NCI-H23 lung
[31] = system: NCI-H460 lung
[32] = system: NCI-H522 lung
[33] = system: NCI/ADR-RES ovarian
[34] = system: OVCAR-3 ovarian
[35] = system: OVCAR-4 ovarian
[36] = system: OVCAR-5 ovarian
[37] = system: OVCAR-8 ovarian
[38] = system: PC-3 prostate
[39] = system: RPMI-8226 leukemia
[40] = system: RXF 393 renal
[41] = system: SF-268 CNS
[42] = system: SF-295 CNS
[43] = system: SF-539 CNS
[44] = system: SK-MEL-2 melanoma
[45] = system: SK-MEL-28 melanoma
[46] = system: SK-MEL-5 melanoma
[47] = system: SK-OV-3 ovarian
[48] = system: SN12C renal
[49] = system: SNB-19 CNS
[50] = system: SNB-75 CNS
[51] = system: SR leukemia
[52] = system: SW-620 colon
[53] = system: T-47D breast
[54] = system: TK-10 renal
[55] = system: U251 CNS
[56] = system: UACC-257 melanoma
[57] = system: UACC-62 melanoma
[58] = system: UO-31 renal

Nc1nccc(-c2c(-c3ccc(F)cc3)ncn2CCCN2CCOCC2)n1
GI50 [1]: > 25 µM | TGI [1]: > 25 µM | GI50 [2]: > 19.2 µM | TGI [2]: > 25 µM | GI50 [3]: > 25 µM | TGI [3]: > 25 µM | GI50 [4]: 19.4 µM | TGI [4]: > 25 µM | GI50 [5]: > 25 µM | TGI [5]: > 25 µM | GI50 [6]: > 25 µM | TGI [6]: > 25 µM | GI50 [7]: > 25 µM | TGI [7]: > 25 µM | GI50 [8]: > 25 µM | TGI [8]: > 25 µM | GI50 [9]: > 25 µM | TGI [9]: > 25 µM | GI50 [10]: > 25 µM | TGI [10]: > 25 µM | GI50 [11]: > 25 µM | TGI [11]: > 25 µM | GI50 [12]: > 25 µM | TGI [12]: > 25 µM | GI50 [13]: > 25 µM | TGI [13]: > 25 µM | GI50 [14]: > 25 µM | TGI [14]: > 25 µM | GI50 [15]: > 25 µM | TGI [15]: > 25 µM | GI50 [16]: > 21.7 µM | TGI [16]: > 25 µM | GI50 [17]: > 25 µM | TGI [17]: > 25 µM | GI50 [18]: > 25 µM | TGI [18]: > 25 µM | GI50 [19]: > 25 µM | TGI [19]: > 25 µM | GI50 [20]: > 25 µM | TGI [20]: > 25 µM | GI50 [21]: > 25 µM | TGI [21]: > 25 µM | GI50 [22]: > 25 µM | TGI [22]: > 25 µM | GI50 [23]: > 25 µM | TGI [23]: > 25 µM | GI50 [24]: > 25 µM | TGI [24]: > 25 µM | GI50 [25]: > 21.6 µM | TGI [25]: > 25 µM | GI50 [26]: > 25 µM | TGI [26]: > 25 µM | GI50 [27]: > 25 µM | TGI [27]: > 25 µM | GI50 [28]: > 25 µM | TGI [28]: > 25 µM | GI50 [29]: > 25 µM | TGI [29]: > 25 µM | GI50 [30]: > 25 µM | TGI [30]: > 25 µM | GI50 [31]: > 25 µM | TGI [31]: > 25 µM | GI50 [32]: > 25 µM | TGI [32]: > 25 µM | GI50 [33]: > 25 µM | TGI [33]: > 25 µM | GI50 [34]: > 25 µM | TGI [34]: > 25 µM | GI50 [35]: > 25 µM | TGI [35]: > 25 µM | GI50 [36]: > 25 µM | TGI [36]: > 25 µM | GI50 [37]: > 25 µM | TGI [37]: > 25 µM | GI50 [38]: > 25 µM | TGI [38]: > 25 µM | GI50 [39]: > 25 µM | TGI [39]: > 25 µM | GI50 [40]: > 17 µM | TGI [40]: > 25 µM | GI50 [41]: > 25 µM | TGI [41]: > 25 µM | GI50 [42]: > 25 µM | TGI [42]: > 25 µM | GI50 [43]: > 25 µM | TGI [43]: > 25 µM | GI50 [44]: > 25 µM | TGI [44]: > 25 µM | GI50 [45]: > 25 µM | TGI [45]: > 25 µM | GI50 [46]: > 25 µM | TGI [46]: > 25 µM | GI50 [47]: > 25 µM | TGI [47]: > 25 µM | GI50 [48]: > 25 µM | TGI [48]: > 25 µM | GI50 [49]: > 25 µM | TGI [49]: > 25 µM | GI50 [50]: > 25 µM | TGI [50]: > 25 µM | GI50 [51]: > 25 µM | TGI [51]: > 25 µM | GI50 [52]: > 25 µM | TGI [52]: > 25 µM | GI50 [53]: > 25 µM | TGI [53]: > 25 µM | GI50 [54]: > 25 µM | TGI [54]: > 25 µM | GI50 [55]: > 25 µM | TGI [55]: > 25 µM | GI50 [56]: > 25 µM | TGI [56]: > 25 µM | GI50 [57]: > 25 µM | TGI [57]: > 25 µM | GI50 [58]: 11.6 µM | TGI [58]: > 25 µM
